The results in this text go back to patent US10392366B2, “Azetidine compounds as GPR119 modulators for the treatment of diabetes, obesity, dyslipidemia and related disorders” (SANOFI, priority 2017, dated 2019).

In the assay the target is T1, human GPR119 (Homo sapiens, UniProt Q8TDV5).
T1 construct: expressed in transfected cells
T1 sequence (Q8TDV5 1-335): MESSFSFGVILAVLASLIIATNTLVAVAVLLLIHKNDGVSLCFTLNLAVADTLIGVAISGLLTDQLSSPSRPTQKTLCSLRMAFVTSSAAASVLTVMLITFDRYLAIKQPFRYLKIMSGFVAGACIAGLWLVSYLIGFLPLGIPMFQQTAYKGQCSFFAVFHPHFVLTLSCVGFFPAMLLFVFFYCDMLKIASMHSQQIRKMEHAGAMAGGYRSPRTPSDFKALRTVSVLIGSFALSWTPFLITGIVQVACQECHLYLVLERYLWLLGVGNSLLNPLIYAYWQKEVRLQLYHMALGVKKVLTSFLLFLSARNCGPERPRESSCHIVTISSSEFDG
Put plainly: Functional cellular assay measuring GPR119-mediated cAMP release (HTRF) in HEK-293 cells stably expressing recombinant GPR119. The format is cell-based. Particulars: cell line expressing human GPR119, 30 minutes at room temperature. The procedure: Functional Cellular Assays Measuring GPR119-mediated cAMP Release
Compounds of the present disclosure, which are agonists of GPR119, were characterized by functional assays measuring the cAMP response of HEK-293 cell lines stably expressing recombinant GPR119 from man, mouse or rat, or by using the hamster cell line HIT-T15 expressing GPR119 endogenously. The cAMP content was determined using a kit based on homogenous time-resolved fluorescence (HTRF) from Cisbio Corp. (cat. no. 62AM4PEC). For preparation, cells were split into T175 culture flasks and grown to near confluency in medium (DMEM/10% FCS for HEK-293 cells, and F-12K medium/10% horse serum/2.5% FCS for HIT-T15 cells, respectively). Medium was then removed and cells washed with PBS lacking calcium and magnesium ions, followed by proteinase treatment with accutase (Sigma-Aldrich, cat. no. A6964). Detached cells were washed and resuspended in assay buffer (1×HBSS; 20 mM HEPES, 0.1% BSA, 2 mM IBMX) and cellular density determined. They were then diluted to 400000 cells/mL and 25 μL-aliquots dispensed to the wells of 96-well plates. For measurement, 25 μL of test compound in assay buffer was added and incubated for 30 minutes at room temperature. After addition of HTRF reagents diluted in lysis buffer, the plates were incubated for 1 hour, followed by measuring the fluorescence ratio at 665 vs. 620 nm. Potency of the agonists was quantified by determining the concentrations that caused 50% of the maximal response/activation (EC50). See Table 6 for exemplary data obtained using the cell line expressing human GPR119.
`CN1CCC2(CN(c3ncc(N4CC[C@@H](Oc5ccc(OCC(F)(F)F)nc5)C4=O)cn3)C2)C1=O` [Compound 1-28]: the 50% effective concentration (EC50) turned out to be 290 nM. As for `CS(=O)(=O)C1CN(c2ncc(N3CC[C@H](Oc4ccc(C(=O)C5CC5)cc4)C3=O)cn2)C1` [Compound 1-27], the EC50 was found to be 2210 nM. To `CC(C)SC1CN(c2ncc(N3CC[C@@H](Oc4ccc(OCC(F)(F)F)nc4)C3=O)cn2)C1` [Compound 1-29] belongs 16 nM; to `O=C1[C@H](Oc2ccc(OCC(F)(F)F)nc2)CCN1c1cnc(N2CC(n3cn[nH]c3=O)C2)nc1` [Compound 5-03], 663 nM. To `CN(C)C(=O)CC1CN(c2ncc(N3CC[C@@H](Oc4ccc(OCC(F)(F)F)nc4)C3=O)cn2)C1` [Compound 1-54] belongs 1660 nM; to `O=C(C1CN(c2ncc(N3CC[C@@H](Oc4ccc(Oc5ccc(F)cc5)nc4)C3=O)cn2)C1)N1CC(O)C1` [Compound 4-11], 915 nM.

As to `NC(=O)C1CN(c2ncc(N3CC[C@@H](Oc4ccc(Oc5ccc(F)cc5)nc4)C3=O)cn2)C1` [Compound 4-04], the EC50 was determined as 5880 nM. To `COC(=O)CC1CN(c2ncc(N3CC[C@@H](Oc4ccc(OCC(F)(F)F)nc4)C3=O)cn2)C1` [Compound 1-30] belongs 334 nM; to `[2H]C([2H])([2H])N(C(=O)C1CN(c2ncc(N3CC[C@@H](Oc4ccc(OCC(F)(F)F)nc4)C3=O)cn2)C1)C([2H])([2H])[2H]` [Compound 4-27], 122 nM.

`CN(C)C(=O)C1CN(c2ncc(N3CC(C)(C)C(Oc4ccc(OCC(F)(F)F)cc4)C3=O)cn2)C1` (stereo not shown) [Compound 1-19]: the EC50 is 180 nM. With `O=C1[C@H](Oc2ccc(OCC(F)(F)F)nc2)CCN1c1cnc(N2CC3(CCNC3=O)C2)nc1` [Compound 1-26], the EC50 is 448 nM. As for `CN(C)C(=O)C1CN(c2ncc(N3CC[C@@H](Oc4ccc(OCC5CC5)nc4)C3=O)cc2C#N)C1` [Compound 1-05], the EC50 was 61 nM. On to `CNCCOC(=O)C1CN(c2ncc(N3CC[C@@H](Oc4ccc(OCC(F)(F)F)nc4)C3=O)cn2)C1` [Compound 4-16], for which the EC50 was 213 nM. To `CCN(CC)C(=O)C1CN(c2ncc(N3CC[C@@H](Oc4ccc(Oc5ccc(F)cc5)nc4)C3=O)cn2)C1` [Compound 4-07] belongs 283 nM; to `CN(C)C(=O)OC1CN(c2ncc(N3CC[C@@H](Oc4ccc(OCC(F)(F)F)nc4)C3=O)cn2)C1` [Compound 5-02], 1030 nM.

With `CN(C)C(=O)C1CN(c2ncc(N3CC(C)(C)C(Oc4ccc(C(=O)C5CC5)cc4)C3=O)cn2)C1` (stereo not shown) [Compound 1-48], the EC50 was found to be 752 nM. For `CN(C)C(=O)C1CN(c2ncc(N3CC[C@@H](Oc4ccc(C(=O)C5CC5)nc4)C3=O)cn2)C1` [Compound 2-04], the EC50 was 926 nM. `O=C1[C@H](Oc2ccc(OCC(F)(F)F)nc2)CCN1c1cnc(N2CC(O)C2)nc1` [Compound 1-22]: the EC50 worked out at 872 nM.

With `O=C(NCCO)C1CN(c2ncc(N3CC[C@@H](Oc4ccc(Oc5ccc(F)cc5)nc4)C3=O)cn2)C1` [Compound 4-12], the concentration giving a half-maximal response (EC50) was found to be 5750 nM. Next, `CCNC(=O)C1CN(c2ncc(N3CC[C@@H](Oc4ccc(Oc5ccc(F)cc5)nc4)C3=O)cn2)C1` [Compound 4-03]: 4040 nM; `CNC(=O)C1CN(c2ncc(N3CC[C@@H](Oc4ccc(Oc5ccc(F)cc5)nc4)C3=O)cn2)C1` [Compound 4-01]: 2060 nM; `C[S+]([O-])C1CN(c2ncc(N3CC[C@@H](Oc4ccc(OCC(F)(F)F)nc4)C3=O)cn2)C1` (single isomer, unassigned) [Compound 1-24]: 335 nM. To `O=C(C1CN(c2ncc(N3CC[C@@H](Oc4ccc(Oc5ccc(F)cc5)nc4)C3=O)cn2)C1)N1CCCC1` [Compound 4-10] belongs 437 nM. To `COC(=O)C1CN(c2ccc(N3CC[C@@H](Oc4ccc(OCC(F)(F)F)nc4)C3=O)cn2)C1` [Compound 1-52] belongs 12 nM; to `CN(CO)C(=O)C1CN(c2ccc(N3CC[C@@H](Oc4ccc(OCC(F)(F)F)nc4)C3=O)cn2)C1` [Compound 5-05], 67 nM; to `CN(C)C(=O)C1CN(c2ncc(N3CC[C@@H](Oc4ccc(C(=O)C5CC(F)(F)C5)nc4)C3=O)cn2)C1` [Compound 2-11], 470 nM.

Consider `NC(=O)C1CN(c2ncc(N3CC[C@@H](Oc4ccc(OCC(F)(F)F)nc4)C3=O)cn2)C1` [Compound 4-21], for which the EC50 came to 245 nM. As to `Cc1cnc(-c2ccc(O[C@@H]3CCN(c4cnc(N5CC(C(=O)N(C)C)C5)nc4)C3=O)cn2)s1` [Compound 2-05], the EC50 turned out to be 116 nM. To `CC(C)[S+]([O-])C1CN(c2ncc(N3CC[C@@H](Oc4ccc(OCC(F)(F)F)nc4)C3=O)cn2)C1` (single isomer, unassigned) [Compound 1-36] belongs 158 nM; to `C[S+]([O-])C1CN(c2ncc(N3CC[C@@H](Oc4ccc(C(=O)C5CC5)cc4)C3=O)cn2)C1` (single isomer, unassigned) [Compound 1-20], 1970 nM; to `CN(C)C(=O)C1CN(c2ncc(N3CC[C@@H](Oc4ccc(OCC(F)(F)F)cc4)C3=O)cn2)C1` [Compound 1-53], 351 nM. In the case of `CN(CCO)C(=O)C1CN(c2ncc(N3CC[C@@H](Oc4ccc(OCC(F)(F)F)nc4)C3=O)cn2)C1` [Compound 4-17], the EC50 worked out at 261 nM. To `CN(C)C(=O)C1CN(c2ncc(N3CC[C@@H](Oc4ccc(OCC(F)(F)F)nc4)C3=O)cc2C#N)C1` [Compound 1-09] belongs 64 nM. To `C[S+]([O-])C1CN(c2ncc(N3CC[C@@H](Oc4ccc(Oc5ccc(F)cc5)nc4)C3=O)cn2)C1` (stereo partly shown) [Compound 1-14] belongs 2070 nM; to `CC(C)NC(=O)C1CN(c2ncc(N3CC[C@@H](Oc4ccc(Oc5ccc(F)cc5)nc4)C3=O)cn2)C1` [Compound 4-05], 1680 nM; to `CN(C)C(=O)C1CN(c2ccc(N3CC[C@H](Oc4ccc(OCC(F)(F)F)nc4)C3=O)cn2)C1` [Compound 1-11], 421 nM. As to `CS(=O)(=O)C1CN(c2ncc(N3CCC(Cc4ccc(OCC(F)(F)F)nc4)C3=O)cn2)C1` (single isomer, unassigned) [Compound 1-44], the EC50 amounted to 138 nM. To `O=C(O)C1CN(c2ncc(N3CC[C@@H](Oc4ccc(OCC5CC5)nc4)C3=O)cn2)C1` [Compound 3-01] belongs 4920 nM. Next, `CS(=O)(=O)C1CN(c2ncc(N3CCC(Cc4ccc(C(=O)C5CC5)cc4)C3=O)cn2)C1` (stereo not shown) [Compound 1-32]: 195 nM; `CC(=O)NC1CN(c2ncc(N3CC[C@@H](Oc4ccc(OCC(F)(F)F)nc4)C3=O)cn2)C1` [Compound 4-24]: 1350 nM; `CN(C)C(=O)C1CN(c2ncc(N3CC[C@@H](Oc4ccc(OCC(F)(F)F)nc4)C3=O)cn2)C1` [Compound 1-12]: 50 nM. Next, `CS(=O)(=O)C1CN(c2ncc(N3CC[C@@H](Oc4ccc(C(=O)C5CC5)c(F)c4)C3=O)cn2)C1` [Compound 1-39]: 179 nM; `O=C(O)C1CN(c2ccc(N3CC[C@@H](Oc4ccc(OCC(F)(F)F)nc4)C3=O)cn2)C1` [Compound 3-02]: 391 nM. For `CN(C)C(=O)C1CN(c2ncc(N3CC[C@@H](Oc4ccc(C(=O)c5ccc(F)cc5)cc4)C3=O)cn2)C1` [Compound 2-02], the EC50 was 137 nM. As for `CN(C)C(=O)C1CN(c2ncc(N3CCC(Cc4ccc(OCC(F)(F)F)nc4)C3=O)cn2)C1` (single isomer, unassigned) [Compound 1-45], the EC50 came to 203 nM. As to `CS(=O)(=O)C1CN(c2ncc(N3CC[C@@H](Oc4ccc(C(=O)C5CC5)cc4)C3=O)cn2)C1` [Compound 1-17], the EC50 came out at 122 nM. Regarding `C[S+]([O-])C1CN(c2ncc(N3CC[C@@H](Oc4ccc(C(=O)C5CC5)cc4)C3=O)cn2)C1` (single isomer, unassigned) [Compound 1-21], the EC50 turned out to be 991 nM. To `CS(=O)(=O)C1CN(c2ncc(N3CCC(Cc4ccc(OCC(F)(F)F)nc4)C3=O)cn2)C1` (single isomer, unassigned) [Compound 1-43] belongs 116 nM.

In the case of `CC(C)[S+]([O-])C1CN(c2ncc(N3CC[C@@H](Oc4ccc(OCC(F)(F)F)nc4)C3=O)cn2)C1` (single isomer, unassigned) [Compound 1-35], the EC50 was determined as 181 nM.

Take `CC(C)S(=O)(=O)C1CN(c2ncc(N3CC[C@@H](Oc4ccc(OCC(F)(F)F)nc4)C3=O)cn2)C1` [Compound 1-37]: the EC50 is 71 nM. Next, `CN(C)C(=O)C1CN(c2ncc(N3CC[C@H](Oc4ccc(OCC(F)(F)F)nc4)C3=O)cn2)C1` [Compound 1-13]: 257 nM. In the case of `CN(C)C(=O)C1CN(c2ncc(N3CC[C@@H](Oc4ccc(OCC5CC5)nc4)C3=O)cc2F)C1` [Compound 1-04], the EC50 is 70 nM.

The EC50 is the concentration needed to bring the measured effect to its halfway point.
